Assay results published in ChEMBL document CHEMBL4393687, “Multi-targeted ChEI-copper chelating molecules as neuroprotective agents” (Eur J Med Chem, 2019).
Active and inactive are the calls of the source. The rule behind the calls is not given here.

Assays:
[1] = Cytotoxicity against mouse HT22 cells assessed as cell viability at 100 uM after 24 hrs by MTT assay relative to control; type: cell-based, HT-22; details: read-out: Activity
[2] = Cytotoxicity against mouse HT22 cells assessed as cell viability at 30 uM after 24 hrs by MTT assay relative to control; type: cell-based, HT-22; details: read-out: Activity
[3] = Antioxidant activity assessed as DPPH free radical scavenging activity at 10 uM after 30 mins incubation in dark by UV-Visible spectrophotometric analysis relative to control; type: functional
[4] = biological target: Acetylcholinesterase (Electrophorus electricus) (UniProt O42275); test: Inhibition of electric eel AChE at 50 nM using acetylthiocholine iodide as substrate preincubated for 60 mins followed by substrate addition measured for 5 mins by Ellman's method
[5] = biological target: Cholinesterase (Equus caballus) (UniProt P81908); test: Inhibition of equine serum BChE at 50 nM using acetylthiocholine iodide as substrate preincubated for 60 mins followed by substrate addition measured for 5 mins by Ellman's method
[6] = Antioxidant activity assessed as DPPH free radical scavenging activity after 30 mins incubation in dark by UV-Visible spectrophotometric analysis; type: functional
[7] = Metal chelating activity assessed as compound-Cu2+ complex formation at 1:1 ratio of test compound to CuCl2 incubated for 30 mins by UV-vis spectrophotometric analysis
[8] = Metal chelating activity assessed as compound-Cu2+ complex formation at 1:2 ratio of test compound to CuCl2 incubated for 30 mins by UV-vis spectrophotometric analysis
HT-22 = test: Neuroprotective activity against glutamate-induced neuronal damage in mouse HT22 cells at 3 to 30 uM pretreated for 30 mins followed by glutamate challenge measured after 24 hrs by MTT assay; type: functional, cell-based
[9] = Metal chelating activity assessed as compound-Cu2+ complex formation by measuring shift in maximum absorption at 10 uM after 30 mins by UV-vis spectrophotometric analysis

Cholinesterase (Equus caballus), sequence (P81908 whole entry): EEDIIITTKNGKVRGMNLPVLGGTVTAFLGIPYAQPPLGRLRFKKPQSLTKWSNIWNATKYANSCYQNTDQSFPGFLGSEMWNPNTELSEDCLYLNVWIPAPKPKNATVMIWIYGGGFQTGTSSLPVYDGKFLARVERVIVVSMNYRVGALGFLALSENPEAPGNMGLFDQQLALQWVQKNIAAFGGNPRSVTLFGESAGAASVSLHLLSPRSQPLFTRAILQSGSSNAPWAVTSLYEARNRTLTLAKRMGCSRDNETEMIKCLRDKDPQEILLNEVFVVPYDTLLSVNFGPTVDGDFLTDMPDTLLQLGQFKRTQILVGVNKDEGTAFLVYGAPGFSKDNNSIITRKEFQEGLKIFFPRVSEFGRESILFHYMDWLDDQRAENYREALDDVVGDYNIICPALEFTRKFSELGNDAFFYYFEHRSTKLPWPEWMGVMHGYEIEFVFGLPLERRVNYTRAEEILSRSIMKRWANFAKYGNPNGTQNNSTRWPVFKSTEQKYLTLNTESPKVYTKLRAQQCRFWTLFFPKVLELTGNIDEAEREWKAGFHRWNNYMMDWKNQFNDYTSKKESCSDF
Acetylcholinesterase (Electrophorus electricus), sequence (O42275 24-633 limits assumed): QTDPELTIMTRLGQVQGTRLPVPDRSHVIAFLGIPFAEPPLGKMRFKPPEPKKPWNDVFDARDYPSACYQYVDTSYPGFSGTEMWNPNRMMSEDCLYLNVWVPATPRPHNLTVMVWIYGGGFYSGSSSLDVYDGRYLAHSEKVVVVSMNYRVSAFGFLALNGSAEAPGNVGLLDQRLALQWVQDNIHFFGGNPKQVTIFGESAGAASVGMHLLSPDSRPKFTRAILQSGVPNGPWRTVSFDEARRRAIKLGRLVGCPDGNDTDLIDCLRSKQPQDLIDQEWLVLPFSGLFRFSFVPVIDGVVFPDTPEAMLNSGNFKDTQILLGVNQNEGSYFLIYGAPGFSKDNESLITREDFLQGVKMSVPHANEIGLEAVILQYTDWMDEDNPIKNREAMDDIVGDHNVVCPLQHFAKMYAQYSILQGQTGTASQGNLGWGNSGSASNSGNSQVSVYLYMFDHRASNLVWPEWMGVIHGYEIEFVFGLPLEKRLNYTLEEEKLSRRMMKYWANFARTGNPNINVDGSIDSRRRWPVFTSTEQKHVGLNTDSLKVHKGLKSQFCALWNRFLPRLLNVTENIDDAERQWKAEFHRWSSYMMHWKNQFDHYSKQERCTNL

CCN(C)C(=O)Nc1cccc(NC(=O)c2cccnc2O)c1
viability at 24 h, 100 µM [1]: 96.1%
viability at 24 h, 30 µM [2]: 97.2%
Activity [3]: 3.62%

CCN(C)C(=O)Oc1cccc(CCNCc2ccccc2O)c1
inhibition [4]: 3.58%
inhibition [5]: 34.5%
Activity [3]: 15.5%

CCN(C)C(=O)Oc1cccc(CNCc2ccccc2O)c1
inhibition [4]: 4.06%
inhibition [5]: 30.5%
viability at 24 h, 100 µM [1]: 90.3%
viability at 24 h, 30 µM [2]: 96.6%
Activity [3]: 17.7%

Cc1c(C)c2c(c(C)c1O)CCC(C)(C(=O)O)O2 (configuration not stated) [TROLOX]
Activity [3]: 24.3%
IC50 [6]: 23.5 µM

CCC(CC)CNc1ccc(O)c(CNCCc2cccc(OC(=O)N(C)CC)c2)c1
inhibition [4]: 3.36%
inhibition [5]: 14.2%
IC50 [6]: 28.7 µM

CCN(C)C(=O)Oc1cccc([C@H](C)N(C)C)c1
inhibition [4]: 2.59%
inhibition [5]: 54.7%

CCN(C)C(=O)Oc1cccc(CCNC(=O)c2cccnc2O)c1
inhibition [4]: 5.43%
inhibition [5]: 53.7%
viability at 24 h, 100 µM [1]: 99.4%
viability at 24 h, 30 µM [2]: 106%
Activity [3]: 2.21%

CCN(C)C(=O)Oc1cccc(NCc2ccccc2O)c1
inhibition [4]: 8.13%
inhibition [5]: 38.5%
viability at 24 h, 100 µM [1]: 80.3%
viability at 24 h, 30 µM [2]: 103%
Activity [3]: 13.8%

CCN(C)C(=O)Oc1cccc(NC(=O)c2cccnc2O)c1
inhibition [4]: 1.87%
inhibition [5]: 73.6%
viability at 24 h, 100 µM [1]: 98.6%
viability at 24 h, 30 µM [2]: 102%
Activity [3]: 4.18%

CCN(C)C(=O)Oc1cccc(CNC(=O)c2cccnc2O)c1
inhibition [4]: 7.59%
inhibition [5]: 46.5%
viability at 24 h, 100 µM [1]: 82.5%
viability at 24 h, 30 µM [2]: 101%
Activity [3]: 2.21%

CCC(CC)CNc1ccc(O)c(CNc2cccc(OC(=O)N(C)CC)c2)c1
inhibition [4]: 9.01%
inhibition [5]: 64.2%
Activity [7]: Active
Activity [8]: Active
viability at 24 h, 100 µM [1]: 25.2%
viability at 24 h, 30 µM [2]: 85.8%
Activity (HT-22): Active
Activity [9]: 50 nm
IC50 [6]: 26.5 µM

CCN(C)C(=O)Oc1cccc(NCc2ccccn2)c1
inhibition [4]: 8.51%
inhibition [5]: 58.9%
viability at 24 h, 100 µM [1]: 80.5%
viability at 24 h, 30 µM [2]: 91.3%
Activity [3]: 7.4%
